From patent publication US5061689A, “Zinc bacitracin containing wound dressing” (Bioderm, Inc., priority 1986, dated 1991)

Columns and labels:
epidermal wounds = test: Effect of bacitracin zinc impregnated foam dressing on epidermal wound healing (Example I); format: in vivo, white Yorkshire pigs; conditions: for HT50 (time in days for 50% of wounds to be completely healed): probit analysis
Text: (§1) To test the effect of bacitracin zinc on epidermal resurfacing, approximately 60 rectangular wounds measuring 7 mm wide, 10 mm long, and 0.5 mm deep were made in each of eighteen white Yorkshire pigs in the paravertebral and thoracic areas with a Castroviejo keratome. The electrokeratome was fitted with a razor blade modified so that the cutting edge was reduced to 7 mm. The wounds were separated from one another by at least 15 mm of normal skin.
On each of the experimental animals, approximately one third of the wounds were assigned to one of three treatment groups: (1) control (no treatment), (2) vehicle alone, (low melting point petrolatum 3.0 g) or (3) bacitracin zinc (either 1%, 2.5%, 5%, 7%, 10% or 20% in 3.0 g). A total of 99 wounds on 3 pigs were treated with each of the varying bacitracin zinc combinations. Vehicle was applied to 594 wounds in 18 animals. The other 594 wounds were the untreated controls.
(§2) The bacitracin zinc was applied in impregnated foam shortly (within 5 minutes) after wounding on day 0 and once daily thereafter for 7 days. In order to rule out the possibility that wounds made in different anatomical regions heal at different rates the regions used for each treatment group varied for each animal.
(§3) Two days after wounding and each day thereafter some of the wounds with surrounding normal skin were excised from each treatment group. The excisions were made with a Castroviejo keratome fitted with a 22 mm blade, set to cut at a depth of 0.7 mm. After incubating the specimens in 2N sodium bromide at 37° C. for three hours, the epidermis was separated from the dermis and the epidermal sheet (22 sq mm) was assessed for re-epithelialization as previously described. Briefly, this method is a macroscopic examination of the separated epidermis for defects. Defects are visualized as holes in the separated epidermal sheet or as a lack of epidermal continuum in the area that contain the wound. The wound is considered re-epithelialized if there are no defects in the epidermis and not re-epithelialized if there are one or more defects.
The time needed for 50% of the wounds in each experimental animal to heal HT50) has been estimated from curves generated by probit analysis of the data presented in Table I. The HT50 values and the relative rate of healing are compared in Table II. Wounds treated with 7% bacitracin zinc healed 46% more rapidly than untreated wounds and 28% faster than wounds treated with the ointment alone. Vehicle treated wounds healed approximately 25% faster than wounds left open to the air.

[1] = test system: deep partial thickness wounds; test: 7% bacitracin zinc ointment with and without polyurethane occlusion, healing of deep partial thickness wounds (Example II); format: in vivo, white Yorkshire pigs
Text: as §1, §2, §3
Further tests were conducted to determine the effect of bacitracin zinc covered with an occlusive film. The wounds in these were treated according to one of four treatment regiments: (1) untreated; (2) polyurethane film; (3) 7% bacitracin zinc ointment, and (4) 7% bacitracin zinc ointment plus polyurethane film. The methodology employed was substantially the same as in Example I.

[2] = bacitracin zinc as 7% ointment, listed as BAC. ZN

Substance: bacitracin zinc
- rate of healing Compared with Untreated (epidermal wounds; 1% bacitracin zinc): +23%
- rate of healing Compared with Vehicle (epidermal wounds; 1% bacitracin zinc): 0%
- % of wounds healed (epidermal wounds; 1% bacitracin zinc in impregnated foam, day 2 after wounding): 0%
- % of wounds healed (epidermal wounds; 1% bacitracin zinc in impregnated foam, day 3 after wounding): 0%
- % of wounds healed (epidermal wounds; 1% bacitracin zinc in impregnated foam, day 4 after wounding): 40%
- % of wounds healed (epidermal wounds; 1% bacitracin zinc in impregnated foam, day 5 after wounding): 58%
- % of wounds healed (epidermal wounds; 1% bacitracin zinc in impregnated foam, day 6 after wounding): 95%
- % of wounds healed (epidermal wounds; 1% bacitracin zinc in impregnated foam, day 7 after wounding): 100%
- HT50 (time in days for 50% of wounds to be completely healed) (epidermal wounds; 1% bacitracin zinc): 4.5 days
- rate of healing Compared with Untreated (epidermal wounds; 2.5% bacitracin zinc): +25%
- rate of healing Compared with Vehicle (epidermal wounds; 2.5% bacitracin zinc): 2%
- % of wounds healed (epidermal wounds; 2.5% bacitracin zinc in impregnated foam, day 2 after wounding): 0%
- % of wounds healed (epidermal wounds; 2.5% bacitracin zinc in impregnated foam, day 3 after wounding): 0%
- % of wounds healed (epidermal wounds; 2.5% bacitracin zinc in impregnated foam, day 4 after wounding): 36%
- % of wounds healed (epidermal wounds; 2.5% bacitracin zinc in impregnated foam, day 5 after wounding): 60%
- % of wounds healed (epidermal wounds; 2.5% bacitracin zinc in impregnated foam, day 6 after wounding): 96%
- % of wounds healed (epidermal wounds; 2.5% bacitracin zinc in impregnated foam, day 7 after wounding): 100%
- HT50 (time in days for 50% of wounds to be completely healed) (epidermal wounds; 2.5% bacitracin zinc): 4.4 days
- rate of healing Compared with Untreated (epidermal wounds; 5.0% bacitracin zinc): +34%
- rate of healing Compared with Vehicle (epidermal wounds; 5.0% bacitracin zinc): 13%
- % of wounds healed (epidermal wounds; 5.0% bacitracin zinc in impregnated foam, day 2 after wounding): 0%
- % of wounds healed (epidermal wounds; 5.0% bacitracin zinc in impregnated foam, day 3 after wounding): 11%
- % of wounds healed (epidermal wounds; 5.0% bacitracin zinc in impregnated foam, day 4 after wounding): 54%
- % of wounds healed (epidermal wounds; 5.0% bacitracin zinc in impregnated foam, day 5 after wounding): 77%
- % of wounds healed (epidermal wounds; 5.0% bacitracin zinc in impregnated foam, day 6 after wounding): 95%
- % of wounds healed (epidermal wounds; 5.0% bacitracin zinc in impregnated foam, day 7 after wounding): 100%
- HT50 (time in days for 50% of wounds to be completely healed) (epidermal wounds; 5.0% bacitracin zinc): 3.9 days
- rate of wound re-epithelialization compared with both untreated and vehicle treated wounds (epidermal wounds; 7% bacitracin zinc): significantly greater
- rate of healing Compared with Untreated (epidermal wounds; 7.0% bacitracin zinc): +46%
- rate of healing Compared with Vehicle (epidermal wounds; 7.0% bacitracin zinc): 28%
- % of wounds healed (epidermal wounds; 7.0% bacitracin zinc in impregnated foam, day 2 after wounding): 0%
- % of wounds healed (epidermal wounds; 7.0% bacitracin zinc in impregnated foam, day 3 after wounding): 36%
- % of wounds healed (epidermal wounds; 7.0% bacitracin zinc in impregnated foam, day 4 after wounding): 70%
- % of wounds healed (epidermal wounds; 7.0% bacitracin zinc in impregnated foam, day 5 after wounding): 98%
- % of wounds healed (epidermal wounds; 7.0% bacitracin zinc in impregnated foam, day 6 after wounding): 100%
- % of wounds healed (epidermal wounds; 7.0% bacitracin zinc in impregnated foam, day 7 after wounding): 100%
- rate of healing Compared with Untreated (epidermal wounds; 7.0% bacitracin zinc, listed as bacitracin zinc): 46%
- HT50 (time in days for 50% of wounds to be completely healed) (epidermal wounds; 7.0% bacitracin zinc): 3.2 days
- rate of healing Compared with Untreated (epidermal wounds; 10.0% bacitracin zinc): +19%
- rate of healing Compared with Vehicle (epidermal wounds; 10.0% bacitracin zinc): -6%
- % of wounds healed (epidermal wounds; 10.0% bacitracin zinc in impregnated foam, day 2 after wounding): 0%
- % of wounds healed (epidermal wounds; 10.0% bacitracin zinc in impregnated foam, day 3 after wounding): 2%
- % of wounds healed (epidermal wounds; 10.0% bacitracin zinc in impregnated foam, day 4 after wounding): 33%
- % of wounds healed (epidermal wounds; 10.0% bacitracin zinc in impregnated foam, day 5 after wounding): 66%
- % of wounds healed (epidermal wounds; 10.0% bacitracin zinc in impregnated foam, day 6 after wounding): 92%
- % of wounds healed (epidermal wounds; 10.0% bacitracin zinc in impregnated foam, day 7 after wounding): 100%
- HT50 (time in days for 50% of wounds to be completely healed) (epidermal wounds; 10.0% bacitracin zinc): 4.8 days
- rate of healing Compared with Untreated (epidermal wounds; 20.0% bacitracin zinc): +19%
- rate of healing Compared with Vehicle (epidermal wounds; 20.0% bacitracin zinc): -6%
- % of wounds healed (epidermal wounds; 20.0% bacitracin zinc in impregnated foam, day 2 after wounding): 0%
- % of wounds healed (epidermal wounds; 20.0% bacitracin zinc in impregnated foam, day 3 after wounding): 0%
- % of wounds healed (epidermal wounds; 20.0% bacitracin zinc in impregnated foam, day 4 after wounding): 42%
- % of wounds healed (epidermal wounds; 20.0% bacitracin zinc in impregnated foam, day 5 after wounding): 58%
- % of wounds healed (epidermal wounds; 20.0% bacitracin zinc in impregnated foam, day 6 after wounding): 96%
- % of wounds healed (epidermal wounds; 20.0% bacitracin zinc in impregnated foam, day 7 after wounding): 100%
- HT50 (time in days for 50% of wounds to be completely healed) (epidermal wounds; 20.0% bacitracin zinc): 4.8 days
- effect on healing (epidermal wounds; levels higher than 5% to 8% bacitracin zinc): tend in inhibit rather than promote healing
- rate of wound re-epithelialization compared with ointment vehicle treated wounds (epidermal wounds; the other concentrations of bacitracin zinc (1%, 2.5%, 5%, 10%, 20%)): no significant difference
- HT50 (time in days for 50% of wounds to be completely healed) ([1]; bacitracin zinc as 7% ointment): 4.1 days
- rate of healing COMPARED WITH PU FILM ([1]; bacitracin zinc as 7% ointment): about 4%
- rate of healing Compared with Untreated ([1]; bacitracin zinc as 7% ointment): about 24%
- rate of healing COMPARED WITH PU FILM [1, 2]: +4%
- rate of healing Compared with Untreated [1, 2]: +24%
- % of wounds healed ([1]; day 2 after wounding, bacitracin zinc as 7% ointment): 0%
- % of wounds healed ([1]; day 3 after wounding, bacitracin zinc as 7% ointment): 19%
- % of wounds healed ([1]; day 4 after wounding, bacitracin zinc as 7% ointment): 42%
- % of wounds healed ([1]; day 5 after wounding, bacitracin zinc as 7% ointment): 77%
- % of wounds healed ([1]; day 6 after wounding, bacitracin zinc as 7% ointment): 92%
- % of wounds healed ([1]; day 7 after wounding, bacitracin zinc as 7% ointment): 100%
- further enhancement in the rate of healing over bacitracin zinc used alone ([1]; semipermeable occlusive film applied over the bacitracin zinc impregnated pad): 20%
